Experiment [1] has as its system HL-60 and PLB-985 cell lines. Description: Surface JAML on HL-60 and PLB-985 after PMA activation. It counts as cell-based, human. The settings on record: 200 nM PMA, 30 minutes at 37° C.; FIG. 5A. On the procedure: Both HL60 and PLB985 (non-differentiated and differentiated) were washed in Hanks solution with Ca^++ and Mg^++ (H^+) at 30×10^6 cells per condition and resuspended in 350 μl H^+ or H^+ containing 200 nM PMA followed by 30 minutes incubation at 37° C. A cell aliquot was set aside for flow cytometry and cells were stained with monoclonal CBRM1/29 (CD11b/CD18) or DW100 anti JAML followed by Alexa Fluor 488 conjugated goat anti mouse antibody.
The findings of JAML shedding were extended to both HL-60 and PLB-985 cell lines. […] Upon activation, human neutrophils release microparticles,called ectosomes, directly from the cell surface and that ectosomes are implicated in the inflammatory response (Eken et al., 2008, J. Immunol. 180, 817-824). To test whether JAML molecules were released in microparticles, supernatants from activated cells were subjected to ultracentrifuge (100,000×g). […] Thus, JAML is indeed shed into the medium upon PMN activation as a soluble molecule.

Experiment [2] deals with PMN. Description: Surface JAML on PMN after activation (flow cytometry). The format is cell-based, human. The conditions noted are these: PMA 200 nM, suspension, 15 minutes at 37° c.; FIG. 4A. On the procedure:
Freshly isolated PMN, not treated (No Tx), or treated with either fMLF (100 nM) or PMA (200 nM) in suspension for 15 minutes at 37° c. were fixed with 1% paraformaldehyde, stained for JAML (DW100) and CD11b/CD18 (CBRM 1/29) and analyzed for surface expression by flow cytometry.
Since prior to transepithelial migration PMNs exit the blood vessels, whether JAML expression on PMNs would be preserved during migration across endothelial cells (HDMECs) towards a 10 μM fMLF, as described previously was evaluated. Indeed under similar conditions only a small portion of surface JAML was lost, but most of it was still detectable on PMN surface (FIG. 3B).
Thus whether PMN activation alone is sufficient to induce the loss of surface JAML or whether direct contact with the epithelium is required was examined. To test this, the expression of JAML was analyzed on PMNs that were stimulated in suspension with fMLF (100 μM) and PMA (200 nM). PMNs were allowed to adhere to epithelial cells for 1 hour. The loss of JAML could be correlated to the degree of PMN activation. […] This was again confirmed by immunofluorescence (FIG. 4B). PMN adhesion to epithelium in the absence of proinflamatory stimulus (as measured by flow cytometry, gating on Mac-1 positive PMNs) was also sufficient to induce a partial loss of surface JAML (FIG. 4C), in agreement with the small loss of surface JAML observed after migration through endothelial cells (FIG. 3B). […] Next, the observed loss of JAML during PMN activation may be due to its shedding from PMN surface and thus would be detectable in the supernatant of activated cells. To test this hypothesis, two antibodies, DW100 and DW216 that recognize two different epitopes of JAML were used in a sandwich ELISA assay to capture solubilized molecules in the supernatant of activated PMN.
On the technique in general: In flow cytometry, cells or beads pass a laser one at a time.

The subject of experiment [3] is monocytes. Description: Surface JAML on monocytes after PMA activation. The format is cell-based, human. The conditions noted are these: 15 minutes at 37° C., FIG. 11. On the procedure:
Monocytes were isolated and purified from whole blood of healthy human donors, incubated on ice with either IgG control (solid histograms) or purified anti-JAML antibodies (5 μg/ml), followed by Alexa Fluor 488 conjugated goat anti mouse antibody before (NoTx) and after PMA activation (PMA, 15 minutes at 37° C.). JAML surface expression was analyzed by flow cytometry.
Following the observation of a complete loss of JAML on PMNs that underwent TEM and with the use of JAML specific mAbs, it was determined that the loss of JAML was induced by PMN activation and that it correlated to the degree of activation and the strength of the given stimulus. […] JAML shedding is not restricted to PMNs alone. JAML is also expressed on blood monocytes. […] As monocytes trail the PMNs infiltrating mucosal surfaces, in addition to PMNs they would also be a source for soluble JAML, further enhancing its effects on epithelial function. […] The shedding of JAML is believed to be due to a zinc-dependent metalloprotease that is inhibited by phenanthroline, a zinc chelator molecule and TAPI-2, a hydroxymate acid-base derivative which inhibits zinc-dependent metalloprotease activities by binding specifically to the catalytic site of the enzyme.

In experiment [4] the test system is JAML release from CHO-JAML-His transfectants. Description: JAML release with protease inhibitors, CHO-JAML-His transfectants. It counts as cell-based.
The test system of experiment [5] is JAML shedding from PLB985. Description: JAML shedding with protease inhibitors, PLB985. It counts as cell-based, human. The settings on record: Phenanthroline; TAPI-2 1 μM. The procedure: FIG. 5C. Inhibition of JAML shedding on the cell surface of PLB985 was confirmed by FACS analysis of cells stained with DW216. In the presence of inhibitors, activated cells maintained the same level of surface expression as the non-activated cells.
To explore the mechanisms for release of JAML from the surface of differentiated HL60 and PLB-985 cells during activation with PMA, PMA was added to cells in the presence or absence of a variety of protease inhibitors. The protease inhibitor cocktail from Sigma that targets serine proteases was used as well as cysteine proteases and several independent inhibitors. […] (Le Gall et al., 2003, JBC 278 No46 45255-45268).
Cells suspensions of adherent cells were prepared by trypsinization with Trypsin-EDTA (Sigma). After washing, cells were resuspended in FACS buffer (2% FBS in PBS+0.1% Na Azide). Approximately, 3-5×10^5 cells were incubated with 5-10 μg/ml of primary antibody for 1 hr at 4° C. followed by 3 washes in FACS buffer and incubation with 1 μg/ml secondary antibody conjugated with Alexa-488. After final washes, cells were analyzed using FACS Calibur. […] All samples were stained for JAML (DW100 mAb) and CD11b/CD18 (CBRM 1/29), and only CD11b/CD18 positive cells (PMNs) were analyzed for JAML expression.

Experiment [6] has as its target T1, epithelial CAR (Mus musculus, UniProt P97792).
T1 construct: from tissue; host or cells: mouse colonic mucosa
T1 sequence (P97792 20-365): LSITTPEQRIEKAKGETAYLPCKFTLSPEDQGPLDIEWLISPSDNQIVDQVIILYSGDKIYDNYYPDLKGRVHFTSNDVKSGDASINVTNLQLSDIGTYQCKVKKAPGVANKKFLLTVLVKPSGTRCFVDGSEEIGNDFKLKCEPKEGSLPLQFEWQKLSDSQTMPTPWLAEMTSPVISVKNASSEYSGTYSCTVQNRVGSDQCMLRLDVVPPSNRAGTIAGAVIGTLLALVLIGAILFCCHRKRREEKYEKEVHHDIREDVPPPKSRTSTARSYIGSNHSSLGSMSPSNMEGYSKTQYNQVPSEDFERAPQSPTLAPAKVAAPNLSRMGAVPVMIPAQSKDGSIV
Description: Immunofluorescence of wounded mouse colonic tissue. It counts as in vivo. The conditions noted are these: I.P. administered his-tagged protein; 1 day after wounding; FIG. 13E.

The target in experiment [7] is T2, murine CAR (Mus musculus, UniProt P97792).
T2 sequence (P97792 20-365): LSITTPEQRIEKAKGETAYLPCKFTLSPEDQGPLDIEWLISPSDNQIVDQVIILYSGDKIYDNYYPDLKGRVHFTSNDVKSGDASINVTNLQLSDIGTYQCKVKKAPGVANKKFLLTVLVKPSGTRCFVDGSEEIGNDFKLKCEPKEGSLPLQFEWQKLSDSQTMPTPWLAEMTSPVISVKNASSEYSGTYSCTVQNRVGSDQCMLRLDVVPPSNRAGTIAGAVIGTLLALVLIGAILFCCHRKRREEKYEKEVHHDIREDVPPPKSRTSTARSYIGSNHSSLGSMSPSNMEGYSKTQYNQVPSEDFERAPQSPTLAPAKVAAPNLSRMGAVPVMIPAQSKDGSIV
The conditions noted are these: cited from earlier work.

Experiment [8] addresses T3, CAR (Mus musculus, UniProt P97792).
T3 construct: from tissue; host or cells: mouse colonic mucosa
T3 sequence (P97792 20-365): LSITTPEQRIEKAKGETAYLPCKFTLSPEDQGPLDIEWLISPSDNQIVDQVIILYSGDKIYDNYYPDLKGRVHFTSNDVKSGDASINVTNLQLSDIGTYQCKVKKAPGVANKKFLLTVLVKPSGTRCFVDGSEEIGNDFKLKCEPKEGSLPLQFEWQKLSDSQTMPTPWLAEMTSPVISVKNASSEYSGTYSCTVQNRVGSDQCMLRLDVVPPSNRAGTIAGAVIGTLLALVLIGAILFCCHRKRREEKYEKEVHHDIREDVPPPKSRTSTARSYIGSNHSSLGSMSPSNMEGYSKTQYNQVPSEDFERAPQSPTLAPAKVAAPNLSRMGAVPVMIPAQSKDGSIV
Description: Colonic mucosal wound healing in vivo. The settings on record: mice; I.P. twice a day 10 μg in 200 μl PBS; endoscopic imaging; FIG. 13B. The procedure: (§1) To examine this in-vivo, the effect of inhibition of CAR function was analyzed on mucosal wound recovery. […] See Witherden et al., Science, 2010, 329(5996): 1205-1210. Whether administration of recombinant Ad5 inhibits colonic wound healing was examined in mice in a fashion analogous to the endogenous CAR ligand, JAML. Colonic mucosal wounds were generated using a mouse colonoscope, and wound recovery was examined 2 and 4 days post wounding by endoscopic imaging in the presence of Ad5, Ad11 (administered I.P, twice a day 10 μg in 200 μl PBS) or PBS alone.
as §1, with “function” for “function was analyzed”, “recovery was analyzed.” for “recovery.”, “colonoscope (FIG. 13, Panel A),” for “colonoscope,”, “alone. […] The delayed wound closure was also evident from histological analysis (representative images, FIG. 13, Panel C) and whole mount preparation (representative images, FIG. 13, Panel D).” for “alone.”

With `CCCCCCCCCCCCCC(=O)O[C@@H]1[C@@H](C)[C@@]2(O)[C@@H](C=C(CO)C[C@]3(O)C(=O)C(C)=C[C@@H]23)[C@@H]2C(C)(C)[C@]12OC(C)=O` [PMA, Phorbol Myristate Acetate], the “surface JAML on HL-60 and PLB-985 after PMA” value in experiment [1] was “complete loss of surface JAML”. The “surface JAML on PMN after PMA” value in experiment [2] was “complete loss of surface JAML from PMNs”. Further, the “JAML expression on monocytes after PMA” value in experiment [3] was “lost upon activation with PMA”.

`CC(C)C[C@H](CC(=O)NO)C(=O)N[C@H](C(=O)N[C@@H](C)C(=O)NCCN)C(C)(C)C` [TAPI-2]: the “inhibition of PMA-induced JAML release, CHO-JAML-His transfectants” value in experiment [4] was “strongly inhibited JAML release due to PMA activation”. Besides, the “inhibition of PMA-induced JAML shedding, PLB985” value in experiment [5] is on record as “inhibition of shedding”.

B1: Ad5: recombinant adenoviral fiber knob protein Ad5, reported to bind murine CAR (protein)
chain: GAITVGNKNNDKLTLWTTPAPSPNCRLNAEKDAKLTLVLTKCGSQILATVSVLAVKGSLAPISGTVQSAHLIIRFDENGVLLNNSFLDPEYWNFRNGDLTEGTAYTNAVGFMPNLSAYPKSHGKTAKSNIVSQVYLNGDKTKPVTLTITLNGTQETGDTTPSAYSMSFSWDWSGHNYINEIFATSSYTFSYIAQE
modifications: left off: small tags and cut ends
Take B1: in experiment [6], the “colocalization with epithelial CAR at wounded areas” value is “colocalizes with epithelial CAR at wounded areas”. The “binding to murine CAR and competition with JAML binding (Witherden et al. 2010)” value in experiment [7] is “has been reported to bind murine CAR and compete with JAML binding”. Further, the “mucosal wound healing 4 days after wounding” value in experiment [8] is approximately 20%.
